Data reported in patent US8802700B2 (Vertex Pharmaceuticals Incorporated, priority 2010, dated 2014).

Molecular target: T1, ΔF508-CFTR (Homo sapiens, UniProt P13569, DEL508-508)
T1 construct: expressed in transfected cells
Test: Membrane potential optical assay (FRET voltage-sensor dyes, VIPR), identification of potentiator compounds
Format: cell-based
Conditions: Table 3, assay not given; for Emax: read-out: % Activity (% Efficacy, relative efficacy)
In short: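 Potentiator screen measured membrane potential via FRET between CC2-DMPE donor and DiSBAC2(3), read on VIPR II. Compound went in with the first addition of chloride-free gluconate bath; cells were ΔF508-CFTR-expressing NIH3T3 mouse fibroblasts, temperature-corrected at 27 °C for 24 h.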

T1 sequence (P13569 with tags, fused parts or gaps DEL508-508): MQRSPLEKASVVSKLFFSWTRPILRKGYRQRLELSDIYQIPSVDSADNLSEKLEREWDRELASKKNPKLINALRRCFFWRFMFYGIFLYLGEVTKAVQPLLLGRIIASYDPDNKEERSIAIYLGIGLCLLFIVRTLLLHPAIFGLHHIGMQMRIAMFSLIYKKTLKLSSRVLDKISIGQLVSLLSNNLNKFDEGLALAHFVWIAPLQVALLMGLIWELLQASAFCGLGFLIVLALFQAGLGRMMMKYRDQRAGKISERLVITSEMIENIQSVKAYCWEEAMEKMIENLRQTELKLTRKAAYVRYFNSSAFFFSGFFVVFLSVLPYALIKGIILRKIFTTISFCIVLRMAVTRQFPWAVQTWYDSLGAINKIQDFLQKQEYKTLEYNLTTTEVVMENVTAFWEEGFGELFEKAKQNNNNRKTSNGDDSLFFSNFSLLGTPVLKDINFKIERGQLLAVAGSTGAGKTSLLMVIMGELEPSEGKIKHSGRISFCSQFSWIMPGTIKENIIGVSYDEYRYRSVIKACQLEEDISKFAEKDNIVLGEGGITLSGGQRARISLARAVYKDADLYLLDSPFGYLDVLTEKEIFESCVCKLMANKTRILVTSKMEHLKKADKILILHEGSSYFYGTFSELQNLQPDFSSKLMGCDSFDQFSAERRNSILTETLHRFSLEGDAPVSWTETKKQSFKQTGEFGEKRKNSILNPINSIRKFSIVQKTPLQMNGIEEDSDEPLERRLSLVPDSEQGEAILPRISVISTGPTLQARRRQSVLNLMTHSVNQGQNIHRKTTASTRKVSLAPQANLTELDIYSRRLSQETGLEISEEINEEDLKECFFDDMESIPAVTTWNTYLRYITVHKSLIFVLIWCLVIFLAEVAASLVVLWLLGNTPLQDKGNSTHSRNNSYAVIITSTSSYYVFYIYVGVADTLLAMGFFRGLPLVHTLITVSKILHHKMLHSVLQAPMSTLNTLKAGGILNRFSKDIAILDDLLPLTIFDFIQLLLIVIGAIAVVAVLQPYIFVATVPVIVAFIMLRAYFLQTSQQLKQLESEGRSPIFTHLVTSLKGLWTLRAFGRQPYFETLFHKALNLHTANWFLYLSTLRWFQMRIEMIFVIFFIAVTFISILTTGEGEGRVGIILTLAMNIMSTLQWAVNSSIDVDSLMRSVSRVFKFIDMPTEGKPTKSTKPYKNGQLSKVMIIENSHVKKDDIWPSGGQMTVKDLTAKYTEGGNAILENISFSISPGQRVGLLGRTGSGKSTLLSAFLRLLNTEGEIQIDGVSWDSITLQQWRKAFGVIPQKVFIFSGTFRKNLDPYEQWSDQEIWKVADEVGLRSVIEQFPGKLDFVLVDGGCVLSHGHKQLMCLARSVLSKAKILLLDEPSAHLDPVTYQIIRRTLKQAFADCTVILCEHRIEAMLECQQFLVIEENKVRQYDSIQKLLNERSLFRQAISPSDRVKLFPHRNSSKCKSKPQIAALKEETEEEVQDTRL

| SMILES | Emax | EC50 |
| --- | --- | --- |
| CSc1nc2ccccc2c(O)c1C(=O)Nc1ccc2cc[nH]c2c1 [Compound 374, 4-hydroxy-N-(1H-indol-6-yl)-2-methylsulfanyl-quinoline-3-carboxamide] | < 25% | – |
| CC(C)(C)c1cc(C(C)(C)C)c(NC(=O)c2c[nH]c3c(C(F)(F)F)cccc3c2=O)cc1O [Compound 580, N-(5-hydroxy-2,4-ditert-butyl-phenyl)-4-oxo-8-(trifluoromethyl)-1H-quinoline-3-carboxamide] | < 25% | – |
| COc1cc(C#N)c(NC(=O)c2c[nH]c3ccccc3c2=O)cc1OC [Compound 106, N-(2-cyano-4,5-dimethoxy-phenyl)-4-oxo-1H-quinoline-3-carboxamide] | < 25% | – |
| CC(C)(C)OC(=O)[C@@H]1CCCN1c1ccc(NC(=O)c2c[nH]c3ccccc3c2=O)c(C(F)(F)F)c1 [Compound 629, (S)-tert-butyl 1-(4-(4-oxo-1,4-dihydroquinoline-3-carboxamido)-3-(trifluoromethyl)phenyl)pyrrolidine-2-carboxylate] | 25 to 100% | – |
| COc1cccc(-c2ccccc2NC(=O)c2c[nH]c3ccccc3c2=O)c1F [Compound 363, N-[2-(2-fluoro-3-methoxy-phenyl)phenyl]-4-oxo-1H-quinoline-3-carboxamide] | > 100% | – |
| CCCCOc1ccccc1NC(=O)c1c[nH]c2ccccc2c1=O [Compound 177, N-(2-butoxyphenyl)-4-oxo-1H-quinoline-3-carboxamide] | > 100% | – |
| Cc1cccc2[nH]cc(C(=O)Nc3ccc(N4CC(F)(F)C[C@H]4C)cc3C(F)(F)F)c(=O)c12 [Compound 667, (R)-N-(4-(4,4-difluoro-2-methylpyrrolidin-1-yl)-2-(trifluoromethyl)phenyl)-5-methyl-4-oxo-1,4-dihydroquinoline-3-carboxamide] | 25 to 100% | – |
| O=C(Nc1ccccc1-c1cccc(Cl)c1Cl)c1c[nH]c2ccccc2c1=O [Compound 171, N-[2-(2,3-dichlorophenyl)phenyl]-4-oxo-1H-quinoline-3-carboxamide] | 25 to 100% | – |
| CC(C)(C)c1ccc(NC(=O)c2c[nH]c3ccccc3c2=O)c(C(C)(C)C)c1O [Compound 594, N-(3-hydroxy-2,4-ditert-butyl-phenyl)-4-oxo-1H-quinoline-3-carboxamide] | > 100% | – |
| CC(C)(C)c1cc(Cl)c(NC(=O)c2c[nH]c3ccccc3c2=O)cc1O [Compound 291, N-(2-chloro-5-hydroxy-4-tert-butyl-phenyl)-4-oxo-1H-quinoline-3-carboxamide] | 25 to 100% | < 10 µM |
| CC(C)(C)OC(=O)N1CCC2(CCNc3cc(NC(=O)c4c[nH]c5ccccc5c4=O)ccc32)CC1 [Compound 238, 7′-[(4-oxo-1H-quinolin-3-ylcarbonyl)amino]-spiro[piperidine-4,4′(1′H)-quinoline], 2′,3′-dihydro-carboxylic acid tert-butyl ester] | 25 to 100% | – |
| Cc1cccc2[nH]cc(C(=O)Nc3ccc(N4CC[C@@H](F)C4)cc3C(F)(F)F)c(=O)c12 [Compound 541, (R)-N-(4-(3-fluoropyrrolidin-1-yl)-2-(trifluoromethyl)phenyl)-5-methyl-4-oxo-1,4-dihydroquinoline-3-carboxamide] | 25 to 100% | – |
| CCOc1ccc(-c2ccccc2NC(=O)c2c[nH]c3ccccc3c2=O)cc1 [Compound 348, N-[2-(4-ethoxyphenyl)phenyl]-4-oxo-1H-quinoline-3-carboxamide] | 25 to 100% | – |
| Cc1ccc2[nH]cc(C(=O)Nc3ccc(N4[C@H](C)CC[C@H]4C)cc3C(F)(F)F)c(=O)c2c1 [Compound 569, N-(4-((2R,5R)-2,5-dimethylpyrrolidin-1-yl)-2-(trifluoromethyl)phenyl)-6-methyl-4-oxo-1,4-dihydroquinoline-3-carboxamide] | 25 to 100% | – |
| CC(C)c1ccc(NC(=O)c2c[nH]c3c(F)cccc3c2=O)c(C(F)(F)F)c1 [Compound 573, 8-fluoro-N-[4-isopropyl-2-(trifluoromethyl)phenyl]-4-oxo-1H-quinoline-3-carboxamide] | 25 to 100% | – |
| CCOC(=O)[C@H]1CCCN(c2ccc(NC(=O)c3c[nH]c4ccccc4c3=O)c(C(F)(F)F)c2)C1 [Compound 660, (S)-ethyl 1-(4-(4-oxo-1,4-dihydroquinoline-3-carboxamido)-3-(trifluoromethyl)phenyl)piperidine-3-carboxylate] | 25 to 100% | – |
| Cc1ccc2c(c1)c(=O)c(C(=O)Nc1ccccc1)cn2C [Compound 394, 1,6-dimethyl-4-oxo-N-phenyl-1H-quinoline-3-carboxamide] | < 25% | – |
| O=C(Nc1ccc(C(F)(F)F)cc1N1CCCCC1)c1c[nH]c2ccccc2c1=O [Compound 514, 4-oxo-N-[2-(1-piperidyl)-4-(trifluoromethyl)phenyl]-1H-quinoline-3-carboxamide] | 25 to 100% | – |
| CC(C)(C)c1cc2cc[nH]c2cc1NC(=O)c1c[nH]c2cc(F)c(F)cc2c1=O [Compound 646, 6,7-difluoro-4-oxo-N-(5-tert-butyl-1H-indol-6-yl)-1H-quinoline-3-carboxamide] | 25 to 100% | – |
| Cc1cccc2[nH]cc(C(=O)Nc3cc(O)c(C4(C)CCCCC4)cc3F)c(=O)c12 [Compound 498, N-[2-fluoro-5-hydroxy-4-(1-methylcyclohexyl)-phenyl]-5-methyl-4-oxo-1H-quinoline-3-carboxamide] | 25 to 100% | – |
| CC(C)(C)c1cc2cc[nH]c2cc1NC(=O)c1c[nH]c2c(C(F)(F)F)cccc2c1=O [Compound 559, 4-oxo-N-(5-tert-butyl-1H-indol-6-yl)-8-(trifluoromethyl)-1H-quinoline-3-carboxamide] | < 25% | – |

Next, values leading:

| Emax | EC50 | SMILES |
| --- | --- | --- |
| < 25% | – | O=C(Nc1ccccc1CCO)c1c[nH]c2ccccc2c1=O [Compound 40, N-[2-(2-hydroxyethyl)phenyl]-4-oxo-1H-quinoline-3-carboxamide] |
| 25 to 100% | < 10 µM | O=C(Nc1cc(O)c2ccccc2c1)c1c[nH]c2ccccc2c1=O [Compound 551, N-(4-hydroxy-2-naphthyl)-4-oxo-1H-quinoline-3-carboxamide] |
| 25 to 100% | – | O=C(Nc1cc(Cl)ccc1F)c1c[nH]c2ccccc2c1=O [Compound 48, N-(5-chloro-2-fluoro-phenyl)-4-oxo-1H-quinoline-3-carboxamide] |
| 25 to 100% | < 10 µM | O=C(Nc1cccnc1Oc1ccc(F)cc1F)c1c[nH]c2ccccc2c1=O [Compound 385, N-[2-(2,4-difluorophenoxy)-3-pyridyl]-4-oxo-1H-quinoline-3-carboxamide] |
| 25 to 100% | – | O=C(Nc1ccccc1OCc1ccccc1)c1c[nH]c2ccccc2c1=O [Compound 240, N-(2-benzyloxyphenyl)-4-oxo-1H-quinoline-3-carboxamide] |
| 25 to 100% | – | N#Cc1ccccc1NC(=O)c1c[nH]c2ccccc2c1=O [Compound 95, N-(2-cyanophenyl)-4-oxo-1H-quinoline-3-carboxamide] |
| 25 to 100% | – | CC(=O)N1CC2(CC2)c2ccc(NC(=O)c3c[nH]c4ccccc4c3=O)cc21 [Compound 175, 4-Oxo-1,4-dihydro-quinoline-3-carboxylic acid N-(1′-Acetyl-1′,2′-dihydrospiro[cyclopropane-1,3′-3H-indol]-6′-yl)-amide] |
| 25 to 100% | < 10 µM | O=C(Nc1ccccc1-c1cc(F)cc(F)c1)c1c[nH]c2ccccc2c1=O [Compound 138, N-[2-(3,5-difluorophenyl)phenyl]-4-oxo-1H-quinoline-3-carboxamide] |
| 25 to 100% | – | O=C(Nc1ccccc1-c1ccc(F)c(F)c1)c1c[nH]c2ccccc2c1=O [Compound 76, N-[2-(3,4-difluorophenyl)phenyl]-4-oxo-1H-quinoline-3-carboxamide] |
| 25 to 100% | – | CC(C)(C)OC(=O)N1CCC(C)(C)c2ccc(NC(=O)c3c[nH]c4ccccc4c3=O)cc21 [Compound 108, 4,4-dimethyl-7-[(4-oxo-1H-quinolin-3-yl)carbonylamino]-1,2,3,4-tetrahydroquinoline-1-carboxylic acid tert-butyl ester] |
| 25 to 100% | – | Cc1cccc(Oc2ncccc2NC(=O)c2c[nH]c3ccccc3c2=O)c1C [Compound 206, N-[2-(2,3-dimethylphenoxy)-3-pyridyl]-4-oxo-1H-quinoline-3-carboxamide] |
| 25 to 100% | – | CCOc1ccccc1NC(=O)c1c[nH]c2ccccc2c1=O [Compound 380, N-(2-ethoxyphenyl)-4-oxo-1H-quinoline-3-carboxamide] |
| 25 to 100% | – | CC(=O)Nc1ccc(C(C)(C)C)c(NC(=O)c2c[nH]c3ccccc3c2=O)c1 [Compound 316, N-(5-acetylamino-2-tert-butyl-phenyl)-4-oxo-1H-quinoline-3-carboxamide] |
| 25 to 100% | – | O=C(Nc1ccccc1-c1ccccc1)c1c[nH]c2ccccc2c1=O [Compound 461, 4-oxo-N-(2-phenylphenyl)-1H-quinoline-3-carboxamide] |
| < 25% | – | CC(=O)Nc1cccc(NC(=O)c2c[nH]c3ccccc3c2=O)c1 [Compound 419, N-(3-acetylaminophenyl)-4-oxo-1H-quinoline-3-carboxamide] |
| 25 to 100% | – | O=C(Nc1ccc2c(c1)NCCC2)c1c[nH]c2ccccc2c1=O [Compound 299, 4-Oxo-N-(1,2,3,4-tetrahydroquinolin-7-yl)-1H-quinoline-3-carboxamide] |
| 25 to 100% | – | CC(C)(C)C(=O)Nc1ccc(NC(=O)c2c[nH]c3ccccc3c2=O)c(C(F)(F)F)c1 [Compound 556, N-[4-(2,2-dimethylpropanoylamino)-2-(trifluoromethyl)phenyl]-4-oxo-1H-quinoline-3-carboxamide] |
| 25 to 100% | – | CCCc1ccc(NC(=O)c2c[nH]c3ccccc3c2=O)cc1NC(=O)OCC [Compound 382, [5-[(4-oxo-1H-quinolin-3-yl)carbonylamino]-2-propyl-phenyl]aminoformic acid ethyl ester] |
| < 25% | – | O=C(Nc1ccc2nc[nH]c2c1)c1c[nH]c2ccccc2c1=O [Compound 414, N-(3H-benzoimidazol-5-yl)-4-oxo-1H-quinoline-3-carboxamide] |
| > 100% | – | CC(C)(C)c1ccc(O)cc1NC(=O)c1c[nH]c2ccccc2c1=O [Compound 662, N-(5-hydroxy-2-tert-butyl-phenyl)-4-oxo-1H-quinoline-3-carboxamide] |
